Starred links: 1 amine or outer side, 2 acyl side, 3 side chain; linkers in the order of their positions; H or OH if unused. Positions of bridges follow the written chain, without caps; N, C: chain ends. Non-standard residues stand in square brackets, D forms with d. Residues, ends and D or L forms follow the SMILES beside them. *: point of attachment. hPhe(3-Cl-4-CF3) = N[C@@H](CCc1ccc(C(F)(F)F)c(Cl)c1)C(=O)O; X23 = CN([C@@H](Cc1ccccc1OC(F)(F)F)C(=O)[*:2])[*:1]; NMePhe(4-Me) = CN[C@@H](Cc1ccc(C)cc1)C(=O)O; NMePhe(4-F) = CN[C@@H](Cc1ccc(F)cc1)C(=O)O; NMeNva(5,5-F2) = CN[C@@H](CCC(F)F)C(=O)O; NMeGly(cPent) = CN[C@H](C(=O)O)C1CCCC1; NMeAla(cPr) = CN[C@@H](CC1CC1)C(=O)O; NMeCha = CN[C@@H](CC1CCCCC1)C(=O)O; NMeGly(cPr) = CN[C@H](C(=O)O)C1CC1; NMeChg = CN[C@H](C(=O)O)C1CCCCC1; NMeI = CC[C@H](C)[C@H](NC)C(=O)O; NMeD = CN[C@@H](CC(=O)O)C(=O)O; NMeL = CN[C@@H](CC(C)C)C(=O)O; hLeu = CC(C)CC[C@H](N)C(=O)O; NMeV = CN[C@H](C(=O)O)C(C)C; d(β3hA) = C[C@@H](N)CC(=O)O; Ac6c = NC1(C(=O)O)CCCCC1; NMeA = CN[C@@H](C)C(=O)O; Piperidide = C1CCN(*)CC1; Pyrrolidide = C1CCN(*)C1; dNMeA = CN[C@H](C)C(=O)O; Ac5c = NC1(C(=O)O)CCCC1; Aze = O=C(O)[C@@H]1CCN1; Sar = CNCC(=O)O
Target: T1, Kras and SOS1 (biotin-tagged human Kras loaded with GDP, His-tagged human SOS1) (Homo sapiens, UniProt P01116, G12D)
T1 construct: made in house; host or cells: E. coli (stated for Kras only)
T1 sequence (P01116 1-188 isoform P01116-2 G12D): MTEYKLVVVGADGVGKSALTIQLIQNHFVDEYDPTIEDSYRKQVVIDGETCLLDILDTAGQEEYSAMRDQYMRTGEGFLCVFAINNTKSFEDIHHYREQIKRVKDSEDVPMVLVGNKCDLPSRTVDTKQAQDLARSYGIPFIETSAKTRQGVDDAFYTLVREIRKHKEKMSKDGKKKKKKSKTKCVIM
Assay: Protein-protein interaction inhibition between Kras and SOS1 (KrasGl2D-SOS PPI) using AlphaScreen
Assay type: binding
Details: AlphaScreen; biotin-tagged human Kras loaded with GDP, His-tagged human SOS1; read-out: KRAS G12D-SOS PPI IC50
Outline: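 Energy transfer from nickel-chelate donor beads bound to His-SOS1 to streptavidin acceptor beads bound to biotin-Kras, expressed in E. coli and loaded with GDP after purification, was monitored. Donors were excited at 680 nm; singlet oxygen reaching acceptors gave emission read at 520-620 nm.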

| Compound | IC50 [nM] |
| --- | --- |
| CC[C@H](C)[C@@H]1NC(=O)[C@H](CC(C)C)N(C)C(=O)C[C@@H](C)NC(=O)[C@H](C(C)C)N(C)C(=O)C2(CCCC2)NC(=O)[C@@H]2CCCN2C(=O)[C@H](CCc2ccc(C(F)(F)F)c(Cl)c2)NC(=O)CN(C)C(=O)[C@H](Cc2ccccc2OC(F)(F)F)N(C)C(=O)CN(C)C(=O)CN(C)C1=O [Compound 1635] (cyclo([Ac5c][NMeV][d(β3hA)][NMeL]I[Sar][Sar][X23][Sar][hPhe(3-Cl-4-CF3)]P)) | 140 |
| CC[C@H](C)[C@@H]1NC(=O)[C@H](CC(C)C)N(C)C(=O)C[C@@H](C(=O)N2CCCCC2)N(C)C(=O)[C@H](C(C)C)N(C)C(=O)C2(CCCC2)NC(=O)[C@@H]2CCCN2C(=O)[C@H](CCc2ccc(C(F)(F)F)c(Cl)c2)NC(=O)CN(C)C(=O)[C@H](CC2CCCCC2)N(C)C(=O)[C@@H]2CCN2C(=O)[C@H](CC2CC2)N(C)C1=O [Compound 1642] ([NMeL]I[NMeAla(cPr)][Aze][NMeCha][Sar][hPhe(3-Cl-4-CF3)]P[Ac5c][NMeV][NMeD]-Piperidide; lactam N-11) | 58 |
| CC[C@H](C)[C@@H]1NC(=O)[C@H](CC(C)C)N(C)C(=O)C[C@@H](C(=O)N2CCCCC2)N(C)C(=O)[C@H](C2CCCCC2)N(C)C(=O)C2(CCCCC2)NC(=O)[C@@H]2CCCN2C(=O)[C@H](CCc2ccc(C(F)(F)F)c(Cl)c2)NC(=O)CN(C)C(=O)[C@H](CC2CCCCC2)N(C)C(=O)CN(C)C(=O)CN(C)C1=O [Compound 1644] ([NMeL]I[Sar][Sar][NMeCha][Sar][hPhe(3-Cl-4-CF3)]P[Ac6c][NMeChg][NMeD]-Piperidide; lactam N-11) | 3.1 |
| CC[C@H](C)[C@@H]1NC(=O)[C@H](CC(C)C)N(C)C(=O)C[C@@H](C(=O)N2CCCCC2)N(C)C(=O)[C@H](C2CCCCC2)N(C)C(=O)C2(CCCC2)NC(=O)[C@@H]2CCCN2C(=O)[C@H](CCc2ccc(C(F)(F)F)c(Cl)c2)NC(=O)CN(C)C(=O)[C@H](CCC(F)F)N(C)C(=O)CN(C)C(=O)CN(C)C1=O [Compound 1647] ([NMeL]I[Sar][Sar][NMeNva(5,5-F2)][Sar][hPhe(3-Cl-4-CF3)]P[Ac5c][NMeChg][NMeD]-Piperidide; lactam N-11) | 3 |
| CC[C@H](C)[C@@H]1NC(=O)[C@H](CC(C)C)N(C)C(=O)C[C@@H](C(=O)N2CCCCC2)N(C)C(=O)[C@H]([C@@H](C)CC)N(C)C(=O)C2(CCCC2)NC(=O)[C@@H]2CCCN2C(=O)[C@H](CCc2ccc(C(F)(F)F)c(Cl)c2)NC(=O)CN(C)C(=O)[C@H](Cc2ccc(C)cc2)N(C)C(=O)CN(C)C(=O)CN(C)C1=O [Compound 1649] ([NMeL]I[Sar][Sar][NMePhe(4-Me)][Sar][hPhe(3-Cl-4-CF3)]P[Ac5c][NMeI][NMeD]-Piperidide; lactam N-11) | 0.42 |
| CC(C)CC[C@@H]1NC(=O)[C@H](CC(C)C)N(C)C(=O)C[C@@H](C(=O)N2CCCCC2)N(C)C(=O)[C@H](C2CCCCC2)N(C)C(=O)C2(CCCC2)NC(=O)[C@@H]2CCCN2C(=O)[C@H](CCc2ccc(C(F)(F)F)c(Cl)c2)NC(=O)CN(C)C(=O)[C@H](CC2CCCCC2)N(C)C(=O)CN(C)C(=O)CN(C)C1=O [Compound 1651] ([NMeL][hLeu][Sar][Sar][NMeCha][Sar][hPhe(3-Cl-4-CF3)]P[Ac5c][NMeChg][NMeD]-Piperidide; lactam N-11) | 4.9 |
| CC[C@H](C)[C@@H]1NC(=O)[C@H](C)N(C)C(=O)C[C@@H](C)NC(=O)[C@H](C(C)C)N(C)C(=O)C2(CCCC2)NC(=O)[C@@H]2CCCN2C(=O)[C@H](CCc2ccc(C(F)(F)F)c(Cl)c2)NC(=O)[C@@H](C)N(C)C(=O)[C@H](Cc2ccc(F)cc2)N(C)C(=O)CN(C)C(=O)CN(C)C1=O [Compound 1655] (cyclo([Ac5c][NMeV][d(β3hA)][NMeA]I[Sar][Sar][NMePhe(4-F)][dNMeA][hPhe(3-Cl-4-CF3)]P)) | 85 |
| CC[C@H](C)[C@@H]1NC(=O)[C@H](CC(C)C)N(C)C(=O)C[C@@H](C(=O)N(C)C)N(C)C(=O)[C@H](C2CCCC2)N(C)C(=O)C2(CCCC2)NC(=O)[C@@H]2CCCN2C(=O)[C@H](CCc2ccc(C(F)(F)F)c(Cl)c2)NC(=O)CN(C)C(=O)[C@H](CC2CCCCC2)N(C)C(=O)CN(C)C(=O)CN(C)C1=O [Compound 1659] ([NMeL]I[Sar][Sar][NMeCha][Sar][hPhe(3-Cl-4-CF3)]P[Ac5c][NMeGly(cPent)][NMeD]-NMe2; lactam N-11) | 0.38 |
| CC[C@H](C)[C@@H]1NC(=O)[C@H](CC(C)C)N(C)C(=O)C[C@@H](C(=O)N2CCCC2)N(C)C(=O)[C@H]([C@@H](C)CC)N(C)C(=O)C2(CCCC2)NC(=O)[C@@H]2CCCN2C(=O)[C@H](CCc2ccc(C(F)(F)F)c(Cl)c2)NC(=O)CN(C)C(=O)[C@H](CC2CCCCC2)N(C)C(=O)CN(C)C(=O)CN(C)C1=O [Compound 1662] ([NMeL]I[Sar][Sar][NMeCha][Sar][hPhe(3-Cl-4-CF3)]P[Ac5c][NMeI][NMeD]-Pyrrolidide; lactam N-11) | 0.65 |
| CC[C@H](C)[C@@H]1NC(=O)[C@H](CC(C)C)N(C)C(=O)C[C@@H](C(=O)N2CCCCC2)N(C)C(=O)[C@H](C2CCCCC2)N(C)C(=O)C2(CCCC2)NC(=O)[C@@H]2CCCN2C(=O)[C@H](CCc2ccc(C(F)(F)F)c(Cl)c2)NC(=O)CN(C)C(=O)[C@H](C2CC2)N(C)C(=O)CN(C)C(=O)CN(C)C1=O [Compound 1666] ([NMeL]I[Sar][Sar][NMeGly(cPr)][Sar][hPhe(3-Cl-4-CF3)]P[Ac5c][NMeChg][NMeD]-Piperidide; lactam N-11) | 1.1 |
